Test results taken from patent publication US6723858B2, “Estrogenic compounds as anti-mitotic agents” (The Children's Medical Center Corporation, priority 1993, dated 2004).

Tests used:
tubulin [1] = test: inhibition of tubulin polymerization in vitro (turbidity at 350 nm); type: biochemical; details: for IC50: read-out: IC50 (concentration required to inhibit tubulin polymerization by 50%), method of Example 1, average ± S.D., obtained graphically
Protocol: Anti-mitotic activity can be evaluated by testing the ability of an estradiol derivative to inhibit tubulin polymerization and microtubule assembly in vitro. Microtubule assembly is followed in a Gilford recording spectrophotometer (model 250 or […]) equipped with electronic temperature controllers. […] The 0.24 ml reaction mixtures are incubated for 15 min. at 37° C. and then chilled on ice. After addition of 10 μl 2.5 mM GTP, the reaction mixture is transferred to a cuvette at 0° C., and a baseline established. At time zero, the temperature controller of the spectrophotometer is set at 37° C. Microtubule assembly is evaluated by increased turbity at 350 nm. […] The 0.24 ml reaction mixtures were incubated for 15 min at 37° C. and chilled on ice. After addition of 10 μl of 2.5 mM GTP the reaction mixtures were transferred to cuvettes held at 0° C., and baselines were established. At time zero the temperature controller was set at 37° C. At the times indicated by the vertical dashed lines the temperature controller was set at the indicated temperatures. […] The 0.24 ml reaction mixtures were incubated for 15 min at 26° C. and chilled on ice. After addition of 10 μl of 10 mM GTP the reaction mixtures were transferred to cuvettes held at 0° C., and baselines were established. At time zero the temperature controller was set at 26° C. At the time indicated by vertical dashed line the temperature controller was set at 0° C.

tubulin [2] = test: inhibition of [3H]colchicine binding to tubulin; details: 1.0 μM tubulin, 5% DMSO, 10 min at 37° C.; for Percent inhibition ± S.D. of colchicine binding to tubulin: 100 μM inhibitor, 2 μM [3H]colchicine
Protocol: Incubation was for 10 min at 37° C.
Incubation was for 10 min at 37° C. […] S.D., standard deviation.

[3] = tested on: chick embryo chorioallantoic membrane new blood vessel cells (angiogenesis); test: chick embryo chorioallantoic membrane (CAM) assay; type: in vivo; details: 100 mg disk (methylcellulose disc) on CAM, after 48 hours
Protocol: Anti-mitotic activity is evaluated in situ by testing the ability of an improved estradiol derivative to inhibit the proliferation of new blood vessel cells (angiogenesis). A suitable assay is the chick embryo chorioallantoic membrane (CAM) assay described by Crum et al. Science 230:1375 (1985). See also, U.S. Pat. No. 5,001,116, hereby incorporated by reference, which describes the CAM assay. Briefly, fertilized chick embryos are removed from their shell on day 3 or 4, and a methylcellulose disc containing the drug is implanted on the chorioallantoic membrane. The embryos are examined 48 hours later and, if a clear avascular zone appears around the methylcellulose disc, the diameter of that zone is measured.

SMILES | IC50 (tubulin [1]) [µM] | other results
C[C@]12CC[C@@H]3c4cc(Br)c(O)cc4CC[C@H]3[C@@H]1CC[C@@H]2O [2-Bromoestradiol] | 4.5 ± 0.6 | 
C[C@]12CC[C@@H]3c4cc(F)c(O)cc4CC[C@H]3[C@@H]1CC[C@@H]2O [2-Fluoroestradiol] | 27 ± 6 | 
C#C[C@]1(O)CC[C@H]2[C@@H]3CCc4cc(O)c(OC)cc4[C@H]3CC[C@@]21C [2-Methoxy-17-ethynylestradiol] | > 40 | 
COc1cc2c(cc1OC)C1CCC3(C)C(O)CCC3C1CC2 (stereo not shown) [2-Methoxyestradiol-3-O-methyl ether] | > 40 | 
COc1cc2c(cc1O)CCC1C2CCC2(C)C(O)CCC12 (stereo not shown) [2-Methoxyestradiol] | 1.9 ± 0.2 | inhibition of tubulin polymerization (FIG. 1) (tubulin [1]; 20-75 μM at 37° C. (A) or 1.0-4.0 μM at 26° C. (B)): inhibition of tubulin polymerization; inhibition of colchicine binding to tubulin (FIG. 2) (tubulin [2]; 5 μM [3H]colchicine): inhibits colchicine binding to tubulin; Percent inhibition ± S.D. of colchicine binding to tubulin (tubulin [2]): 82 ± 2%; inhibition of cell mitosis and growth of new blood vessels [3]: inhibit cell mitosis and the growth of new blood vessels
COc1cc2c(cc1O)CC[C@@H]1[C@@H]2CC[C@]2(C)[C@@H](O)[C@H](O)C[C@@H]12 [2-Methoxyestriol] | > 40 | 
COc1cc2c(cc1O)CC[C@@H]1[C@@H]2CC[C@]2(C)C(=O)CC[C@@H]12 [2-Methoxyestrone] | 8.8 ± 1 | Percent inhibition ± S.D. of colchicine binding to tubulin (tubulin [2]): 57 ± 6%
COc1ccc2c(c1OC)CCC1C2CCC2(C)C(O)CCC12 (stereo not shown) [4-Methoxyestradiol-3-O-methyl ether] | > 40 | 
COc1c(O)ccc2c1CCC1C2CCC2(C)C(O)CCC12 (stereo not shown) [4-Methoxyestradiol] | > 40 | 
C#C[C@]1(O)CC[C@H]2[C@@H]3CCc4cc(O)ccc4[C@H]3CC[C@@]21C [17-Ethynylestradiol, reference compound] | 10 ± 2 | Percent inhibition ± S.D. of colchicine binding to tubulin (tubulin [2]): 50 ± 7%
COc1ccc(CCc2cc(OC)c(OC)c(OC)c2)cc1O [Dihydrocombretastatin A-4, reference compound] | 0.63 ± 0.03 | 
COc1ccc2c(c1)CC[C@@H]1[C@@H]2CC[C@]2(C)[C@@H](O)CC[C@@H]12 [Estradiol-3-O-methyl ether] | > 40 | 
C[C@]12CC[C@@H]3c4ccc(O)cc4CC[C@H]3[C@@H]1C[C@@H](O)[C@@H]2O [Estriol, reference compound] | > 40 | 
